According to patent publication US11839613B2, “Pyrimidine derivatives as PGE2 receptor modulators” (IDORSIA PHARMACEUTICALS LTD, priority 2017, dated 2023):

Columns and labels:
[1] = target: PTGER2 (EP2) (Homo sapiens (Human), UniProt P43116); assay: hEP2 b-arrestin assay (PathHunter HEK 293 PTGER2 b-arrestin cells); format: cell-based; conditions: antagonistic activity, beta-arrestin assay; read-out: hEP2 b-arr IC50
Procedure: Plate is pre-incubated 15 minutes at 37° C. Then five microliters of PGE2 (final conc. 5 μM) are transferred into the assay plate. Plate is incubated 120 minutes at 37° C.
(each concentration is measured in duplicate)

[2] = target: PTGER4 (EP4) (Homo sapiens (Human), UniProt P35408); assay: cell-based
Chain of PTGER4 (EP4) (P35408 whole entry): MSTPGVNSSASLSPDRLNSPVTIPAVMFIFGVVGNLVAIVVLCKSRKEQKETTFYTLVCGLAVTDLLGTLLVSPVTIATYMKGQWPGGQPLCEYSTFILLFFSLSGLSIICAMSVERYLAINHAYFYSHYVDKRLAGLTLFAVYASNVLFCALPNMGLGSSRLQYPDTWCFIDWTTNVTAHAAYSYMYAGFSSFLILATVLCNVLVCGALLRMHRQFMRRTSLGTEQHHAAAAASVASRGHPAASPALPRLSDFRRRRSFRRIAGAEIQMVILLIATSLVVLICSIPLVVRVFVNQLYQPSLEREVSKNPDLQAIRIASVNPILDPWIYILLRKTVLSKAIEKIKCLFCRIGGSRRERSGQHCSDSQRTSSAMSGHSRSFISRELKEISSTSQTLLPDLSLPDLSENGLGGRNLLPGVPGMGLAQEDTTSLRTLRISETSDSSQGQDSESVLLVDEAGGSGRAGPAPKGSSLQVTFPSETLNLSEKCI

Chain of PTGER2 (EP2) (P43116 whole entry): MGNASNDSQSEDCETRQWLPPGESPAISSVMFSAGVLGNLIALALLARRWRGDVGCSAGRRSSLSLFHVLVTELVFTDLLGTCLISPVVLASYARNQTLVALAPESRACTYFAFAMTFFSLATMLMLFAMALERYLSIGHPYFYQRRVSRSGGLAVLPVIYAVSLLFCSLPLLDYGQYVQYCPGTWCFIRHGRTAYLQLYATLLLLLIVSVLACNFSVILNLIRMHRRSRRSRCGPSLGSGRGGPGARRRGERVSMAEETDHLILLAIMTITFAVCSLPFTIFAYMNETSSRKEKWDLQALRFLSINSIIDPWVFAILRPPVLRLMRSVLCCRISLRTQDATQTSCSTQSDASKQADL

| SMILES | IC50 [1] | IC50 [2] |
| --- | --- | --- |
| COC(=O)c1sc(-c2cc(NCCc3ccc4ccccc4c3C)ncn2)cc1O [Example 468, 3-Hydroxy-5-{6-[2-(1-methyl-naphthalen-2-yl)-ethylamino]-pyrimidin-4-yl}-thiophene-2-carboxylic acid methyl ester] | 564 nM | 571 nM |
| CCOc1cc(-c2cc(NCCc3cc4ccsc4cc3C)ncn2)cc(F)c1CC(=O)O [Example 469, (2-Ethoxy-6-fluoro-4-{6-[2-(6-methyl-benzo[b]thiophen-5-yl)-ethylamino]-pyrimidin-4-yl}-phenyl)-acetic acid] | 502 nM | 480 nM |
| CCOc1cc(-c2cc(NCCc3ccc4ccsc4c3C)ncn2)ccc1C(=O)O [Example 470, 2-Ethoxy-4-{6-[2-(7-methyl-benzo[b]thiophen-6-yl)-ethylamino]-pyrimidin-4-yl}-benzoic acid] | 343 nM | 420 nM |
| Cc1c(CCNc2cc(-c3ccc(C(=O)O)c(OC4CCC4)c3)ncn2)ccc2ccsc12 [Example 471, 2-Cyclobutoxy-4-{6-[2-(7-methyl-benzo[b]thiophen-6-yl)-ethylamino]-pyrimidin-4-yl}-benzoic acid] | 207 nM | 300 nM |
| CCOc1cc(-c2cc(NCCc3ccc4ccsc4c3C)ncn2)ccc1CC(=O)O [Example 472, (2-Ethoxy-4-{6-[2-(7-methyl-benzo[b]thiophen-6-yl)-ethylamino]-pyrimidin-4-yl}-phenyl)-acetic acid] | 680 nM | 246 nM |
| CSc1cc(-c2cc(NCCc3ccc4ccsc4c3C)ncn2)ccc1C(=O)O [Example 473, 4-{6-[2-(7-Methyl-benzo[b]thiophen-6-yl)-ethylamino]-pyrimidin-4-yl}-2-methylsulfanyl-benzoic acid] | 137 nM | 275 nM |
| COc1cc(-c2cc(NCCc3cc(F)c4sccc4c3)ncn2)ccc1CC(=O)O [Example 475, (4-{6-[2-(7-Fluoro-benzo[b]thiophen-5-yl)-ethylamino]-pyrimidin-4-yl}-2-methoxy-phenyl)-acetic acid] | 663 nM | 62 nM |
| CCOc1cc(-c2cc(NCCc3cc(C)c4sccc4c3)ncn2)ccc1C(=O)O [Example 476, 2-Ethoxy-4-{6-[2-(7-methyl-benzo[b]thiophen-5-yl)-ethylamino]-pyrimidin-4-yl}-benzoic acid] | 428 nM | 264 nM |
| CSc1cc(-c2cc(NCCc3cc(C)c4sccc4c3)ncn2)ccc1C(=O)O [Example 477, 4-{6-[2-(7-Methyl-benzo[b]thiophen-5-yl)-ethylamino]-pyrimidin-4-yl}-2-methylsulfanyl-benzoic acid] | 316 nM | 210 nM |
| CCCc1cc(-c2cc(NCCc3cc(C)c4sccc4c3)ncn2)ccc1C(=O)O [Example 478, 4-{6-[2-(7-Methyl-benzo[b]thiophen-5-yl)-ethylamino]-pyrimidin-4-yl}-2-propyl-benzoic acid] | 788 nM | 242 nM |
| CCCOc1cc(-c2cc(NCCc3ccc4sccc4c3)ncn2)ccc1CC(=O)O [Example 479, {4-[6-(2-Benzo[b]thiophen-5-yl-ethylamino)-pyrimidin-4-yl]-2-propoxy-phenyl}-acetic acid] | 345 nM | 158 nM |
| CCCOc1cc(-c2cc(NCCc3cc4c(cc3OC)OCCO4)ncn2)ccc1CC(=O)O [Example 480, (4-{6-[2-(7-Methoxy-2,3-dihydro-benzo[1,4]dioxin-6-yl)-ethylamino]-pyrimidin-4-yl}-2-propoxy-phenyl)-acetic acid] | 170 nM | 207 nM |
| CCCc1cc(-c2cc(NCCc3cc4ccsc4c(F)c3OC)ncn2)ccc1C(=O)O [Example 483, 4-{6-[2-(7-Fluoro-6-methoxy-benzo[b]thiophen-5-yl)-ethylamino]-pyrimidin-4-yl}-2-propyl-benzoic acid] | 26 nM | 115 nM |
| CCOc1cc(-c2cc(NCCc3cc4ccsc4c(F)c3OC)ncn2)sc1C(=O)O [Example 484, 3-Ethoxy-5-{6-[2-(7-fluoro-6-methoxy-benzo[b]thiophen-5-yl)-ethylamino]-pyrimidin-4-yl}-thiophene-2-carboxylic acid] | 3 nM | 3 nM |
| COc1cc(-c2cc(NCCc3cc4ccsc4c(F)c3OC)ncn2)ccc1CC(=O)O [Example 485, (4-{6-[2-(7-Fluoro-6-methoxy-benzo[b]thiophen-5-yl)-ethylamino]-pyrimidin-4-yl}-2-methoxy-phenyl)-acetic acid] | 125 nM | 122 nM |
| CCCc1cc(-c2cc(NCCc3cc4ccsc4c(F)c3OC)ncn2)ccc1CC(=O)O [Example 486, (4-{6-[2-(7-Fluoro-6-methoxy-benzo[b]thiophen-5-yl)-ethylamino]-pyrimidin-4-yl}-2-propyl-phenyl)-acetic acid] | 95 nM | 136 nM |
| CCOc1cc(-c2cc(NCCc3cc(C(F)(F)F)c4sccc4c3)ncn2)sc1C(=O)O [Example 488, 3-Ethoxy-5-{6-[2-(7-trifluoromethyl-benzo[b]thiophen-5-yl)-ethylamino]-pyrimidin-4-yl}-thiophene-2-carboxylic acid] | 723 nM | 45 nM |
| CCOc1cc(-c2cc(NCCc3ccc4scc(Cl)c4c3)ncn2)ccc1C(=O)O [Example 490, 4-{6-[2-(3-Chloro-benzo[b]thiophen-5-yl)-ethylamino]-pyrimidin-4-yl}-2-ethoxy-benzoic acid] | 90 nM | 144 nM |
| CC(C)Oc1cc(-c2cc(NCCc3cc(F)c4sccc4c3)ncn2)ccc1C(=O)O [Example 491, 4-{6-[2-(7-Fluoro-benzo[b]thiophen-5-yl)-ethylamino]-pyrimidin-4-yl}-2-isopropoxy-benzoic acid] | 372 nM | 148 nM |
| O=C(O)c1ccc(-c2cc(NCCc3cc4c(cc3OC(F)F)OCCO4)ncn2)cc1OC1CCC1 [Example 494, 2-Cyclobutoxy-4-{6-[2-(7-difluoromethoxy-2,3-dihydro-benzo[1,4]dioxin-6-yl)-ethylamino]-pyrimidin-4-yl}-benzoic acid] | 340 nM | 209 nM |

Other lines, results leading:

| IC50 [1] | IC50 [2] | SMILES |
| --- | --- | --- |
| 204 nM | 142 nM | CC(C)Oc1cc(-c2cc(NCCc3ccc4sccc4c3F)ncn2)ccc1C(=O)O [Example 492, 4-{6-[2-(4-Fluoro-benzo[b]thiophen-5-yl)-ethylamino]-pyrimidin-4-yl}-2-isopropoxy-benzoic acid] |
| 642 nM | 497 nM | COc1cc2c(cc1CCNc1cc(-c3ccc(C(=O)O)c(OC(C)C)c3)ncn1)OCCO2 [Example 493, 2-Isopropoxy-4-{6-[2-(7-methoxy-2,3-dihydro-benzo[1,4]dioxin-6-yl)-ethylamino]-pyrimidin-4-yl}-benzoic acid] |
| 77 nM | 193 nM | CSc1cc(-c2cc(NCCc3cc4c(cc3OC(F)F)OCCO4)ncn2)ccc1C(=O)O [Example 495, 4-{6-[2-(7-Difluoromethoxy-2,3-dihydro-benzo[1,4]dioxin-6-yl)-ethylamino]-pyrimidin-4-yl}-2-methylsulfanyl-benzoic acid] |
| 588 nM | 908 nM | O=C(O)c1ccc(-c2cc(NCCc3cc(F)c4sccc4c3)ncn2)cc1 [Example 496, 4-{6-[2-(7-Fluoro-benzo[b]thiophen-5-yl)-ethylamino]-pyrimidin-4-yl}-benzoic acid] |
| 449 nM | 443 nM | COc1cc(-c2cc(NCCc3cc(F)c4sccc4c3)ncn2)ccc1C(=O)O [Example 497, 4-{6-[2-(7-Fluoro-benzo[b]thiophen-5-yl)-ethylamino]-pyrimidin-4-yl}-2-methoxy-benzoic acid] |
| 163 nM | 107 nM | CCCc1cc(-c2cc(NCCc3ccc4scc(Cl)c4c3)ncn2)ccc1CC(=O)O [Example 498, (4-{6-[2-(3-Chloro-benzo[b]thiophen-5-yl)-ethylamino]-pyrimidin-4-yl}-2-propyl-phenyl)-acetic acid] |
| 180 nM | 169 nM | O=C(O)Cc1ccc(-c2cc(NCCc3ccc4scc(Cl)c4c3)ncn2)cc1OC(F)(F)F [Example 499, (4-{6-[2-(3-Chloro-benzo[b]thiophen-5-yl)-ethylamino]-pyrimidin-4-yl}-2-trifluoromethoxy-phenyl)-acetic acid] |
| 88 nM | 99 nM | COc1cc2ccccc2c(C)c1CCNc1cc(-c2ccc(CC(=O)O)c(OC(F)(F)F)c2)ncn1 [Example 500, (4-{6-[2-(3-Methoxy-1-methyl-naphthalen-2-yl)-ethylamino]-pyrimidin-4-yl}-2-trifluoromethoxy-phenyl)-acetic acid] |
| 196 nM | 808 nM | CCCc1cc(-c2cc(NCCc3cc(F)c4scc(Cl)c4c3)ncn2)ccc1CC(=O)O [Example 501, (4-{6-[2-(3-Chloro-7-fluoro-benzo[b]thiophen-5-yl)-ethylamino]-pyrimidin-4-yl}-2-propyl-phenyl)-acetic acid] |
| 103 nM | 903 nM | CCOc1cc(-c2cc(NCCc3cc(F)c4scc(Cl)c4c3)ncn2)ccc1CC(=O)O [Example 502, (4-{6-[2-(3-Chloro-7-fluoro-benzo[b]thiophen-5-yl)-ethylamino]-pyrimidin-4-yl}-2-ethoxy-phenyl)-acetic acid] |
| 102 nM | 157 nM | C#Cc1cc2c(cc1CCNc1cc(-c3ccc(CC(=O)O)c(OC)c3)ncn1)OCCO2 [Example 503, (4-{6-[2-(7-Ethynyl-2,3-dihydro-benzo[1,4]dioxin-6-yl)-ethylamino]-pyrimidin-4-yl}-2-methoxy-phenyl)-acetic acid] |
| 108 nM | 167 nM | CCCc1cc(-c2cc(NCCc3ccc4c(c3C)OCCO4)ncn2)ccc1CC(=O)O [Example 504, (4-{6-[2-(5-Methyl-2,3-dihydro-benzo[1,4]dioxin-6-yl)-ethylamino]-pyrimidin-4-yl}-2-propyl-phenyl)-acetic acid] |
